From PubChem BioAssay AID1259332 (Broad Institute, 2017)
The source made the active and inactive calls. The rule behind the calls is not given here.

Test system: not listed separately
Experiment: CD40 pathway inhibition in B cells – B cell lineage, dose response (AID 1259332);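 note: cells stimulated with CD40 ligand tCD40L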;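 for activity change, negative = inhibition: 0% = neutral control wells and -100% = positive control wells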
Settings: B cell line, CD40 signaling inhibition reporter; at 0.35 µM (top of the series)

Row | Compound | activity change, negative = inhibition
1 | CCc1cnc(N2[C@H](C#N)[C@H](c3ccc(C#CCC4CCCC4)cc3)[C@@H]2CO)s1 | 4.84% (inactive)

Same assay, conditions: B cell line, CD40 signaling inhibition reporter; at 0.38 µM (top of the series)

Row | Compound | activity change, negative = inhibition
2 | O=C1C(=Cc2ccccc2[N+](=O)[O-])Cc2ccccc21 | 19.6% (inactive)

Same assay, conditions: B cell line, CD40 signaling inhibition reporter; at 1.1 µM (top of the series)

Row | Compound | activity change, negative = inhibition
3 | COc1ccc(C#Cc2ccc([C@H]3[C@@H](CO)N4CCCCN(S(=O)(=O)c5cn(C)cn5)C[C@H]34)cc2)cc1 | 15.6% (inactive)

Same assay, conditions: B cell line, CD40 signaling inhibition reporter; at 3.5 µM (top of the series)

Row | Compound | activity change, negative = inhibition
4 | COc1ccccc1C(=O)Nc1ccc2c(c1)C(=O)N(C)[C@H]1CC[C@H](CC(=O)Nc3cccc(C(C)C)c3)O[C@@H]1CO2 | 12.5% (inactive)
5 | C[C@@H]1CCCCO[C@@H](CN(C)C(=O)C2CCCCC2)[C@@H](C)CN([C@H](C)CO)C(=O)c2cc(NS(=O)(=O)c3ccccc3)ccc2O1 | -0.82% (inactive)
6 | CC(C)(C)c1cc(/C=C(\C#N)C(N)=S)cc(C(C)(C)C)c1O | 4.91% (inactive)
7 | N#C[C@@H]1[C@@H](c2ccccc2-c2ccccc2)[C@@H](CO)N1C(=O)NC1CCCC1 | 5.58% (inactive)
8 | N#C[C@H]1[C@@H](c2ccc(C#CC3CCCCC3)cc2)[C@@H](CO)N1C(=O)Nc1ccc(F)cc1 | 2.75% (inactive)
9 | N#Cc1cccc(-c2ccc([C@@H]3[C@H](CO)N4CCCCN(C(=O)Nc5cccc(F)c5)C[C@@H]34)cc2)c1 | 18.1% (inactive)
10 | C[C@H]1CN([C@@H](C)CO)C(=O)c2c(c3ccccc3n2C)-c2ccccc2CO[C@H]1CN(C)S(=O)(=O)c1ccc([N+](=O)[O-])cc1 | -3.2% (inactive)

Same assay, conditions: B cell line, CD40 signaling inhibition reporter; at 10 µM (top of the series)

Row | Compound | activity change, negative = inhibition
11 | COc1ccc(C(=O)/C=C/C(=O)N(CC(=O)NC2CCCCC2)Cc2ccc(F)cc2)c(O)c1 | -5.51% (inactive)
12 | Cc1ccc2nc(-c3cc(-c4ccccc4)no3)cn2c1 | 34.4% (inactive)
13 | C[C@@H]1CN([C@@H](C)CO)C(=O)c2ccccc2-c2ccccc2CO[C@@H]1CN(C)C(=O)c1cc(Cl)cc(Cl)c1 | -6.79% (inactive)
14 | CCc1cc2c(=O)c(-c3ccc4c(c3)OCCO4)coc2c(CN2CCCCC2C)c1O (centres undefined) | 1.98% (inactive)
15 | CCSc1ccc(-c2cc(NC=O)c3ncc(-c4cccc(C(=O)N(C)C)c4)n3c2)cc1 | 21.6% (inactive)
16 | Cc1ccc(-c2cc(C(=O)N3CCCC(C(F)(F)F)C3)c3ccccc3n2)o1 (centres undefined) | 16.7% (inactive)
17 | CC12CC[C@H]3[C@@H](CCC4(O)C[C@H](O)CCC34/C=N/NC(=O)Cc3ccccc3)C1(O)CCC2C1=CC(=O)OC1 (some centres undefined) | 5.75% (inactive)
18 | COc1cccc(OC)c1OCCNCC1COc2ccccc2O1 (centres undefined) | 18.1% (inactive)
19 | O=C(CNCCO)N1N=C(c2cccs2)CC1c1cccs1 (centres undefined) | 12.3% (inactive)
20 | Nc1cccc2nc3ccccc3cc12 | 22.5% (inactive)
21 | COCCn1c(C)cc(C(=O)COC(=O)c2ccc(Br)o2)c1C | -11.7% (inactive)
22 | COc1ccc(CN2CC3(CN(S(=O)(=O)c4ccc(C)cc4)C3)c3c([nH]c4cc(OC)ccc34)[C@H]2CO)cc1 | -1.27% (inactive)
23 | C[C@@H]1CN([C@@H](C)CO)C(=O)c2c(c3ccccc3n2C)-c2ccccc2CO[C@@H]1CN(C)Cc1ccccc1C(F)(F)F | 4.94% (inactive)
24 | CCc1cc2c(COC(=O)c3cc(S(=O)(=O)N4CCOCC4)ccc3F)cc(=O)oc2cc1O | 11.4% (inactive)

Test system: B cell line, CD40 signaling inhibition reporter
Experiment: as above
Settings: not given

Row | Compound | AC50
25 | COc1cc2cc(C(=O)N3CC(COS(C)(=O)=O)c4ccc(O)cc43)[nH]c2c(OC)c1OC (centres undefined) | 0.00741 µM
26 | CC(C)c1c(O)ccc2c1CCC1C(C)(C)CCC[C@]21C (some centres undefined) | 5.44 µM
27 | CC(C)(C)c1cc(C=C(C#N)C#N)cc(C(C)(C)C)c1O | 0.524 µM
28 | C[C@H]1CN([C@@H](C)CO)C(=O)c2c(c3ccccc3n2C)-c2ccccc2CO[C@H]1CN(C)C(=O)Nc1ccccc1C(F)(F)F | > 20 µM (inactive)
29 | C[C@H](CO)N1C[C@H](C)[C@@H](CN(C)Cc2ccc(Cl)c(Cl)c2)OCCCC[C@H](C)Oc2ccc(NS(=O)(=O)c3cccs3)cc2C1=O | 8.38 µM
30 | CC(=O)OCC12CC(OC(=O)CC(C)C)C(C)=CC1OC1C(O)C(OC(C)=O)C2(C)C12CO2 (centres undefined) | 2.74 µM
31 | CC(=O)OC1CCC2(C)C(CCC3C4CC=C(C(C)=O)C4(C)OC(=O)CC32)C1 (centres undefined) | 2.3 µM
32 | C[C@@H]1CN([C@@H](C)CO)C(=O)c2c(c3ccccc3n2C)-c2ccccc2CO[C@@H]1CN(C)Cc1cccc(C(F)(F)F)c1 | 7.08 µM
33 | C=C1C(=O)O[C@H]2[C@H]1CC/C(C)=C/CC[C@@]1(C)O[C@@H]21 | 4.54 µM
34 | CCC1=C(CC2NCCc3ccccc32)CC2c3cc(OC)c(OC)cc3CCN2C1 (centres undefined) | 1.75 µM
35 | CCN1/C(=C/c2sc(-c3ccccc3C)c[n+]2C)Sc2ccccc21 | 1.91 µM
36 | Cc1ccc(-c2ccccc2[C@H]2[C@@H](C#N)N(c3ncc(-c4ccccc4)s3)[C@@H]2CO)cc1 | > 20 µM (inactive)
37 | C[C@@H]1C[C@@H]([C@H](O)CC2CC(=O)NC(=O)C2)C(=O)[C@@H](C)C1 | 0.393 µM
38 | CCCn1c(NC(=O)c2cccc(S(=O)(=O)N3CCCC3)c2)nc2ccccc21 | 2.02 µM
39 | CC(C)(C)OC(=O)CC(S(=O)(=O)c1ccccc1)S(=O)(=O)c1ccccc1 | 0.95 µM
40 | Cc1ccccc1C(=O)N1CCC(C(=O)Nc2nc3ccc(F)cc3s2)CC1 | 8.19 µM
41 | NCCOc1ccc(C23CC4CC(CC(C4)C2)C3)cc1 | 5.74 µM
42 | COc1c(O)cc2oc3cc(O)c(CC=C(C)C)c(O)c3c(=O)c2c1CC=C(C)C | 3.6 µM
43 | N#C[C@H]1[C@H](c2ccc(C#Cc3ccc(F)cc3)cc2)[C@@H](CO)N1C(=O)C1CCC1 | 7.7 µM
44 | CCCNC(=O)N1[C@H](C#N)[C@H](c2ccc(C#Cc3cccc(F)c3)cc2)[C@H]1CO | 5.57 µM
45 | CCC(C)[C@H]1O[C@]2(CC[C@@H]1C)C[C@@H]1C[C@@H](C/C=C(\C)[C@@H](OC3C[C@H](OC)C(O[C@H]4C[C@H](OC)[C@@H](O)[C@H](C)O4)[C@H](C)O3)[C@@H](C)/C=C/C=C3\CO[C@@H]4[C@H](O)C(C)=C[C@@H](C(=O)O1)[C@]34O)O2 (some centres undefined) | > 20 µM (inactive)
46 | CC1CC(C)(O)CC(C(O)CC2CC(=O)NC(=O)C2)C1=O (centres undefined) | 0.0973 µM
47 | Cc1ccc(S(=O)(=O)C=CS(=O)(=O)c2ccc(C)cc2)cc1 | 0.996 µM
48 | N#C[C@H]1[C@H](c2ccc(C#Cc3ccccc3F)cc2)[C@@H](CO)N1C(=O)C1CC1 | > 20 µM (inactive)
49 | COC(=O)c1ccc2nc(NC(=O)C(C)(C)C)sc2c1 | 1.9 µM
50 | O=C1C=CC2C3C(=O)N(c4ccccc4)C(=O)C3C1N2Cc1ccccc1 (centres undefined) | 1.8 µM
51 | Cc1ccccc1-c1ccc2c(c1)O[C@@H](CN(C)C(=O)Nc1ccc(C(F)(F)F)cc1)[C@@H](C)CN([C@@H](C)CO)S2(=O)=O | 10.5 µM
52 | Cc1ccccc1NC(=O)c1nc(S(C)(=O)=O)ncc1Cl | 1.68 µM

Row | Compound | AC50
53 | C[C@@H]1CN([C@@H](C)CO)C(=O)c2c(c3ccccc3n2C)-c2ccccc2CO[C@H]1CN(C)C(=O)Nc1cccc(C(F)(F)F)c1 | 9.25 µM
54 | CC[N+]1(C)CCC(O)(c2ccc(OC)cc2)C(C(=O)c2ccc(OC)cc2)C1 (centres undefined) | 3.75 µM
55 | CC(C)(C)CC(C)(C)c1ccc(O)c(Cc2ccc(Cl)cc2Cl)c1 | 7.11 µM
56 | COc1ccc(/C=C/C(=O)Nc2ccccc2C(=O)O)cc1OC | 6.12 µM
57 | CC1=CC2OC3CC4OC(=O)C=CC=CC(C(C)O)OCC(O)C5(C)OC5C(=O)OCC2(CC1O)C4(C)C31CO1 (centres undefined) | 0.0375 µM
58 | CC1Cc2ccccc2N1c1ncnc(N)c1[N+](=O)[O-] (centres undefined) | 7.92 µM
59 | CC1(C)C(=O)C=C[C@@]2(C)C1C(=O)C(=O)[C@]1(C)C2CC[C@@]2(C)[C@H](c3ccoc3)C[C@H]3O[C@]321 (some centres undefined) | 3.47 µM
60 | N#Cc1cccc(-c2ccc(C3[C@H]4CNC[C@@H]3N4Cc3ccc4c(c3)OCO4)cc2)c1 (some centres undefined) | > 20 µM (inactive)
61 | CC=Cc1cc2c(c(=O)o1)C(=O)C(O)C(C)O2 (centres undefined) | > 20 µM (inactive)
62 | COc1cccc(S(=O)(=O)N(C)C[C@H]2OCc3ccccc3-c3c(n(C)c4ccccc34)C(=O)N([C@H](C)CO)C[C@@H]2C)c1 | > 7 µM (inactive)
63 | N#C[C@@H]1[C@H](c2ccc(C#CC3CCCC3)cc2)[C@@H](CO)N1C(=O)Nc1ccc(F)cc1 | > 20 µM (inactive)
64 | CC(=NNc1ccc2ccccc2n1)c1ccccc1O | 2.94 µM
65 | CC[C@@]1(O)C(=O)OCc2c1cc1n(c2=O)Cc2cc3c(CN(C)C)c(O)ccc3nc2-1 | 0.9 µM
66 | O=C(C[C@@H]1CC[C@@H]2[C@H](COC[C@H](O)CN2Cc2cc(F)ccc2F)O1)NCc1ccc(Oc2ccccc2)cc1 | 6.77 µM
67 | Cc1ccc(O)c(N=Nc2ccccc2)n1 | 8.46 µM
68 | N#Cc1cccc(-c2ccc(C3[C@@H]4CN(C(=O)Nc5ccc(C(F)(F)F)cc5)C[C@H]3N4)cc2)c1 (some centres undefined) | 8.9 µM
69 | NC(=O)c1c(Br)n(C2OC(CO)C(O)C2O)c2ncnc(N)c12 (centres undefined) | 3.84 µM
70 | Cc1cc(C(=O)COC(=O)CNC(=O)c2ccccc2)c(C)n1CC1CCCO1 (centres undefined) | 2.32 µM
71 | COC1=CC(=O)c2c(ccc3ncnc(N)c23)C1=O | 1.66 µM
72 | O=C(Cc1ccccc1)N1CC[C@@H]2[C@H]1c1cc(-c3cccc(F)c3)ccc1N[C@@H]2CO | 1.89 µM
73 | C[C@H]1O[C@@H](O[C@H]2[C@@H](O)C[C@H](O[C@H]3[C@@H](O)C[C@H](O[C@H]4CC[C@]5(C)C6CC[C@]7(C)[C@@H](C8=CC(=O)OC8)CC[C@]7(O)C6CC[C@@H]5C4)O[C@@H]3C)O[C@@H]2C)C[C@H](O)[C@@H]1O (some centres undefined) | 0.929 µM
74 | Clc1ccc(COC(Cn2ccnc2)c2ccc(Cl)cc2Cl)c(Cl)c1 (centres undefined) | 5.18 µM
75 | COC(=O)c1ccccc1-c1c2ccc(=N)cc-2oc2cc(N)ccc12 | 10.9 µM
76 | Clc1ccc(C(Cn2ccnc2)OCc2ccsc2Cl)c(Cl)c1 (centres undefined) | 6.04 µM
77 | Cc1noc(C)c1S(=O)(=O)N(C)C[C@@H]1OCc2ccccc2-c2c(n(C)c3ccccc23)C(=O)N([C@@H](C)CO)C[C@@H]1C | 11.3 µM
78 | C[C@H]1CN([C@@H](C)CO)C(=O)Cc2cc(NS(=O)(=O)c3cccs3)ccc2O[C@@H]1CN(C)Cc1ccc(Cl)c(Cl)c1 | 5.83 µM
79 | COC(=O)C1=C(C)NC(C)=C(C(=O)OCCCN2CCC(c3ccccc3)(c3ccccc3)CC2)[C@H]1c1cccc([N+](=O)[O-])c1 | 11.4 µM
